The text below walks through data of PubChem BioAssay AID1963980 (Molecular Pharmacology Branch, DTP, NCI, 2024).

For the assay, the system named is 475296-252-R-J1-PDC spheroid viability. The assay is described as follows: Anticancer human tumor 475296-252-R-J1-PDC patient-derived rectal carcinoma cell line growth inhibition [PI3K]. Conditions: spheroids with HUVEC and MSC; for viability, T/C: stronger effect = lower value. From the text: Combinatorial screen of targeted agents with the PI3K inhibitors inavolisib, alpelisib, duvelisib, and copanlisib in multi-cell type tumor spheroids
A high-throughput screen of multi-cell type tumor spheroids was designed to identify active combinations of targeted small molecules and PI3K pathway inhibitors. Complex spheroids include a stromal component modeled by human endothelial cells (HUVEC) and fibroblasts modeled by human mesenchymal stem cells (MSCs). The concentration ranges selected for each drug and investigational agent were based upon clinically achievable concentrations if the clinical Cmax of the agent was known.
Compounds. The drugs and investigational agents: inavolisib (NSC800729), alpelisib (NSC765974), duvelisib (NSC772469), copanlisib (NSC816437), ipatasertib (NSC767898), afuresertib (NSC778305), talazoparib (NSC767125), sapanisertib (NSC764658), selumetinib (NSC741078), tovorafenib (DAY101, NSC766906), vemurafenib (NSC761431), ravoxertinib (NSC781343), sotorasib (NSC818433), MRTX1133 (NSC 836407), abemaciclib (NSC 768073), palbociclib (NSC758247), venetoclax (NSC 766270), SY5609 (NSC837396), enzalutamide (NSC755605), and darolutamide (NSC825331), were obtained from the National Cancer Institute (NCI) Developmental Therapeutics Program Chemical Repository. The FDA-approved anticancer drug set is available from the NCI Developmental Therapeutics Program. […] The stock solutions were prepared in dimethyl sulfoxide (DMSO, Sigma-Aldrich, St. Louis, MO, cat. D2650) at 800-fold the tested concentration and stored at -70 degrees C prior to their use. All drugs and investigational agents were tested over a range starting from a high concentration at or near the clinical Cmax and decreasing in half-log increments. If the clinical Cmax for an agent had not been determined, the highest concentration tested was 10 microM.
Cell Culture. All cells were maintained in an incubator at 37 degrees C and 5% CO2 with 95% humidity. The PDC lines were cultured according to standard operating procedures established by the NCI PDMR (https://pdmr.cancer.gov/sops/default.htm). All PDCs were thawed and cultured in Matrigel-coated flasks prepared with a working solution of 1X Ham's F-12 nutrient mix, without supplementation (Invitrogen, Waltham, MA, cat. 11765054), 100 U/mL penicillin-streptomycin (Invitrogen, cat. 15140122), and 2.5% Matrigel (Corning Inc., Corning, NY, cat. 354248) for the first three passages. The 354836-022-R-J1-PDC, 475296-252-R-J1-PDC, and 997726-040-R-J2-PDC lines were cultured in 6A media, which includes advanced DMEM/F-12 (Thermo Fisher Scientific, cat. 12634028), 10 mM HEPES (Thermo Fisher Scientific, cat. 15630080), 1X GlutaMAX supplement (Thermo Fisher Scientific, cat. 35050061), 0.1 mg/mL primocin (InvivoGen, San Diego, CA, cat. ant-pm-2), 10% defined fetal bovine serum, heat inactivated (HyClone Laboratories Inc., Logan, UT, cat. SH30070.03HI), 50% L-WRN conditioned media (ATCC, cat. CRL-3276), 1.25 mM N-Acetyl-L-cysteine (Sigma-Aldrich, cat. A9165), 10 mM nicotinamide (Sigma-Aldrich, cat. N0636), 1X B-27 supplement (Thermo Fisher Scientific, cat. 17504044), 1X N-2 supplement (Thermo Fisher Scientific, cat. 17502048), and 10 microM Y-27632 dihydrochloride (Tocris Bioscience, Bristol, United Kingdom, cat. 1254). The 624824-186-R-J2-PDC line was cultured in 6C/Colon 1B media, which includes all 6A media components plus 50 ng/mL human EGF recombinant protein (Thermo Fisher Scientific, cat. PHG0311). […]
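Note: spheroids exposed to agents for seven days before readout.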

As for `CC(C)n1nc(-c2ccc3oc(N)nc3c2)c2c(N)ncnc21`, the viability, T/C (compound 0.000316 µM) was 99.6% [middle of 4 runs]; the viability, T/C (compound 0.001 µM) was 94.3% [middle of 4 runs]; the viability, T/C (compound 0.00316 µM) is 93.9% [middle of 4 runs]; the viability, T/C (compound 0.1 µM) is 63.1% [middle of 4 runs]. The IC50 (curve of compound) is above 0.1 µM.
As to `COc1c(OCCCN2CCOCC2)ccc2c3n(c(=NC(=O)c4cnc(N)nc4)nc12)CCN3`, the viability, T/C was 103% [middle of 8 runs] (compound 0.00316 µM); 97.3% [middle of 8 runs] (compound 0.01 µM); 90.7% [middle of 8 runs] (compound 0.0316 µM); 87% [middle of 8 runs] (compound 0.1 µM); 71.5% [middle of 8 runs] (compound 0.316 µM); 68% [middle of 8 runs] (compound 1 µM). Moreover, the IC50 (compound alone, run of 06/13/2023) is above 1 µM.
In the case of `CC(Cn1ccc(-c2ccc(C#N)c(Cl)c2)n1)NC(=O)c1cc(C(C)O)[nH]n1` (centres undefined) + Cc1nc(NC(=O)N2CCCC2C(N)=O)sc1-c1ccnc(C(C)(C)C(F)(F)F)c1, the 50% inhibitory concentration (IC50) (curve of first compound, second compound 0.0316 µM) was above 10 µM; the concentration for half-maximal inhibition (IC50) (curve of first compound, second compound 0.1 µM) is above 10 µM; the concentration for half-maximal inhibition (IC50) (curve of first compound, second compound 0.316 µM) is above 10 µM; the IC50 (curve of first compound, second compound 1 µM) is above 10 µM; the IC50 (curve of first compound, second compound 3.16 µM) is above 10 µM; the concentration for half-maximal inhibition (IC50) (curve of first compound, second compound 10 µM) is above 10 µM. In addition, the viability, T/C was 105% (second compound 0.0316 µM, first compound 0.0316 µM); 108% (second compound 0.0316 µM, first compound 0.1 µM); 110% (second compound 0.0316 µM, first compound 0.316 µM); 98.4% (second compound 0.0316 µM, first compound 1 µM); 105% (second compound 0.0316 µM, first compound 3.16 µM); 107% (second compound 0.0316 µM, first compound 10 µM). Moreover, the viability, T/C is, setting by setting: (second compound 0.1 µM, first compound 0.0316 µM) 98.1%; (second compound 0.1 µM, first compound 0.1 µM) 99.7%; (second compound 0.1 µM, first compound 0.316 µM) 111%; (second compound 0.1 µM, first compound 1 µM) 105%; (second compound 0.1 µM, first compound 3.16 µM) 120%; (second compound 0.1 µM, first compound 10 µM) 112%. In addition, the viability, T/C (second compound 0.316 µM, first compound 0.0316 µM) is 93.1%; the viability, T/C (second compound 0.316 µM, first compound 0.1 µM) was 104%; the viability, T/C (second compound 0.316 µM, first compound 0.316 µM) is 103%; the viability, T/C (second compound 0.316 µM, first compound 1 µM) was 97.9%; the viability, T/C (second compound 0.316 µM, first compound 3.16 µM) is 102%; the viability, T/C (second compound 0.316 µM, first compound 10 µM) is 99.1%. The viability, T/C is, setting by setting: (second compound 1 µM, first compound 0.0316 µM) 95.9%; (second compound 1 µM, first compound 0.1 µM) 108%; (second compound 1 µM, first compound 0.316 µM) 91.4%; (second compound 1 µM, first compound 1 µM) 99.2%; (second compound 1 µM, first compound 3.16 µM) 111%; (second compound 1 µM, first compound 10 µM) 111%. Moreover, the viability, T/C is 98.4% (second compound 3.16 µM, first compound 0.0316 µM); 96.1% (second compound 3.16 µM, first compound 0.1 µM); 103% (second compound 3.16 µM, first compound 0.316 µM); 105% (second compound 3.16 µM, first compound 1 µM); 105% (second compound 3.16 µM, first compound 3.16 µM); 101% (second compound 3.16 µM, first compound 10 µM). The viability, T/C (second compound 10 µM, first compound 0.0316 µM) was 90.2%; the viability, T/C (second compound 10 µM, first compound 0.1 µM) is 84.3%; the viability, T/C (second compound 10 µM, first compound 0.316 µM) is 97%; the viability, T/C (second compound 10 µM, first compound 1 µM) is 98.9%; the viability, T/C (second compound 10 µM, first compound 3.16 µM) was 95%; the viability, T/C (second compound 10 µM, first compound 10 µM) is 91.2%.
